Measurements published in patent US8455475B2 (Gruenenthal GmbH, priority 2009, dated 2013).

target: T1, rat B1R (bradykinin receptor 1) (Rattus norvegicus, UniProt P97583); experiment: FLIPR Ca2+ assay (Fluo-4) on CHO K1 cells stably transfected with the B1R gene of the rat (rB1R cells): % inhibition at 10 μM / IC50, agonist Des-Arg9-bradykinin; format: cell-based; conditions: CHO-K1, rat B1R
T1 construct: expressed in transfected cells; host or cells: CHO K1 cells
T1 sequence (P97583 1-337): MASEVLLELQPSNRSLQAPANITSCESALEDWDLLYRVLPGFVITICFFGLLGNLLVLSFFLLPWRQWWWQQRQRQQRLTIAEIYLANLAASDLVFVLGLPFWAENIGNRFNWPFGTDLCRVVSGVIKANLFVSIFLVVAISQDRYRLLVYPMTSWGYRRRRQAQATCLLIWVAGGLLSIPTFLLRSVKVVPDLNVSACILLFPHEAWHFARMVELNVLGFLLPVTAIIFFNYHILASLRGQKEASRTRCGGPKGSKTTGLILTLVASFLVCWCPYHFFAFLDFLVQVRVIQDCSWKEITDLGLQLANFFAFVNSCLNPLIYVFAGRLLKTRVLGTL
Description: The agonistic or antagonistic action of substances can be quantified on the bradykinin receptor 1 (B1R) of the human and rat species with ectopically expressing cell lines (CHO K1 cells) and with the aid of a Ca^2+-sensitive dyestuff (Fluo-4) in a fluorescent imaging plate reader (FLIPR). The figure in % activation is based on the Ca^2+ signal after addition of Lys-Des-Arg^9-bradykinin (0.5 nM) or Des-Arg^9-bradykinin (100 nM). Antagonists lead to a suppression of the Ca^2+ inflow after addition of the agonist. % inhibition compared with the maximum achievable inhibition is stated.
The agonistic or antagonistic action of substances can be determined on the bradykinin receptor 1 (B1R) of the human and rat species with the following assay. In accordance with this assay, the Ca^2+ inflow through the channel is quantified with the aid of a Ca^2+-sensitive dyestuff (type Fluo-4, Molecular Probes Europe BV, Leiden, Holland) in a fluorescent imaging plate reader (FLIPR, Molecular Devices, Sunnyvale, USA).
Chinese hamster ovary cells (CHO K1 cells) transfected stably with the human B1R gene (hB1R cells) or the B1R gene of the rat (rB1R cells) are used. For functional studies, these cells are plated out on black 96-well plates with a clear base (BD Biosciences, Heidelberg, Germany or Greiner, Frickenhausen, Germany) in a density of 20,000-35,000 cells/well. The cells are left overnight at 37° C. and 5% CO2 in culture medium (hB1R cells: Nutrient Mixture Ham's F12, Gibco Invitrogen GmbH, Karlsruhe, Germany or DMEM, Sigma-Aldrich, Taufkirchen, Germany; rB1R cells: D-MEM/F12, Gibco Invitrogen GmbH, Karlsruhe, Germany) with 10 vol. % FBS (foetal bovine serum, Gibco Invitrogen GmbH, Karlsruhe, Germany or PAN Biotech GmbH, Aidenbach, Germany). On the following day, the cells are loaded for 60 min at 37° C. with 2.13 μM Fluo-4 (Molecular Probes Europe BV, Leiden Holland) in HBSS buffer (Hank's buffered saline solution, Gibco Invitrogen GmbH, Karlsruhe, Germany) with 2.5 mM probenecid (Sigma-Aldrich, Taufkirchen, Germany) and 10 mM HEPES (Sigma-Aldrich, Taufkirchen, Germany). The plates are then washed 2× with HBSS buffer, and HBSS buffer which additionally contains 0.1% BSA (bovine serum albumin; Sigma-Aldrich, Taufkirchen, Germany), 5.6 mM glucose and 0.05% gelatine (Merck KGaA, Darmstadt, Germany) is added. After a further incubation of 20 minutes at room temperature, the plates are inserted into the FLIPR for the Ca^2+ measurement. Alternatively, the plates are washed with buffer A (15 mM HEPES, 80 mM NaCl, 5 mM KCl, 1.2 mM CaCl2, 0.7 mM MgSO4, 2 g/l glucose, 2.5 mM probenecid), buffer A is added and the plates are loaded with 2.5 μM Fluo-4 and 0.025% Pluronic F127 (Sigma-Aldrich, Taufkirchen, Germany). Thereafter, the cells are washed 2× with buffer A and incubated for 30 minutes at room temperature with buffer A, which additionally contains 0.05% BSA and 0.05% gelatine, and thereafter inserted into the FLIPR for the Ca^2+ measurement. The Ca^2+-dependent fluorescence is measured here before and after addition of substances (λex=488 nm, λem=540 nm). Quantification is by measurement of the highest fluorescence intensity (FC, fluorescence counts) over time.
The FLIPR protocol consists of 2 additions of substance. Test substances (10 μM) are first pipetted on to the cells and the Ca^2+ inflow is compared with the control (hB1R: Lys-Des-Arg^9-bradykinin>=50 nM; rB1R: Des-Arg^9-bradykinin 10 μM). This gives the result in % activation based on the Ca^2+ signal after addition of Lys-Des-Arg^9-bradykinin (>=50 nM) or Des-Arg^9-bradykinin (10 μM). After incubation for 10-20 minutes, Lys-Des-Arg^9-bradykinin (hB1R) or Des-Arg^9-bradykinin (rB1R) in the concentration of the EC80 is applied and the inflow of Ca^2+ is likewise determined. Antagonists lead to a suppression of the Ca^2+ inflow. % inhibition compared with the maximum achievable inhibition is calculated.
For determination of the IC50 value, the substances are added in various concentrations. […]

Compound | inhibition at 10 µM [%]
COc1ccc(C(=O)N(C)C2CCc3ccc(C(=O)N4CCC5(CC4)CCN(c4ccncc4)CC5)cc32)c(Cl)c1 (stereo not drawn) [IND_CC-201, 2-Chloro-4-methoxy-N-methyl-N-[6-(9-pyridin-4-yl-3,9-diazaspiro[5.5]undecane-3-carbonyl)-2,3-dihydro-1H-inden-1-yl]-benzamide] | 99
COc1ccc(C(=O)NC2CCc3ccc(C(=O)N4CCC5(CC4)CCN(c4ccncc4)CC5)cc32)c(Cl)c1 (stereo not drawn) [IND_CC-211, 2-Chloro-4-methoxy-N-[6-(9-pyridin-4-yl-3,9-diazaspiro[5.5]undecane-3-carbonyl)-2,3-dihydro-1H-inden-1-yl]-benzamide] | 104
COc1ccc(C(=O)NC2CCc3ccc(C(=O)N4CCC5(CC4)CCN(c4ccc(C(F)(F)F)cc4)CC5)cc32)c(Cl)c1 (stereo not drawn) [IND_CC-213, 2-Chloro-4-methoxy-N-[6-[9-[4-(trifluoromethyl)-phenyl]-3,9-diazaspiro[5.5]undecane-3-carbonyl]-2,3-dihydro-1H-inden-1-yl]-benzamide] | 73

Now from value to compound:

inhibition at 10 µM [%] | Compound
60 | O=C(NC1CCc2ccc(C(=O)N3CCC4(CC3)CCN(c3ccc(C(F)(F)F)cc3)CC4)cc21)c1cc(F)ccc1Cl (stereo not drawn) [IND_CC-222, 2-Chloro-5-fluoro-N-[6-[9-[4-(trifluoromethyl)-phenyl]-3,9-diazaspiro[5.5]undecane-3-carbonyl]-2,3-dihydro-1H-inden-1-yl]-benzamide]
97 | Cc1cccc(Cl)c1S(=O)(=O)N(C)C1CCc2ccc(C(=O)N3CCC4(CC3)CCN(c3ccncc3)CC4)cc21 (stereo not drawn) [IND_CC-227, 2-Chloro-N,6-dimethyl-N-[6-(9-pyridin-4-yl-3,9-diazaspiro[5.5]undecane-3-carbonyl)-2,3-dihydro-1H-inden-1-yl]-benzenesulfonic acid amide]
104 | O=C(NC1CCc2ccc(C(=O)N3CCC4(CC3)CCN(c3ccc(C(F)(F)F)cc3)CC4)cc21)c1cc(F)c(F)cc1Cl (stereo not drawn) [IND_CC-230, 2-Chloro-4,5-difluoro-N-[6-[9-[4-(trifluoromethyl)-phenyl]-3,9-diazaspiro[5.5]undecane-3-carbonyl]-2,3-dihydro-1H-inden-1-yl]-benzamide]
89 | N#Cc1ccccc1C(=O)NC1CCc2ccc(C(=O)N3CCC4(CC3)CCN(c3ccc(C(F)(F)F)cc3)CC4)cc21 (stereo not drawn) [IND_CC-235, 2-Cyano-N-[6-[9-[4-(trifluoromethyl)-phenyl]-3,9-diazaspiro[5.5]undecane-3-carbonyl]-2,3-dihydro-1H-inden-1-yl]-benzamide]

same assay, conditions: rat B1R

Compound | % Inhibition (rat B1R) at 10 μM [%]
2,3-Dichloro-N-methyl-N-[6-(9-pyridin-4-yl-3,9-diazaspiro[5.5]undecane-3-carbonyl)-2,3-dihydro-1H-inden-1-yl]-benzenesulfonic acid amide [IND_CC-343] | 97
2-Chloro-N-[6-[8-[(2-chloro-4-fluoro-phenyl)-methyl]-2,8-diazaspiro-[4.5]decane-2-carbonyl]-2,3-dihydro-1H-inden-1-yl]-6-fluoro-benzamide [IND_CC-741] | 100
2-Chloro-N-[6-[9-[(1-methyl-1H-benzotriazol-5-yl)-methyl]-3,9-diazaspiro[5.5]-undecane-3-carbonyl]-2,3-dihydro-1H-inden-1-yl]-5-(trifluoromethyl)-benzamide [IND_CC-697] | 98
2-Methyl-N-[6-(8-pyridin-4-yl-2,8-diazaspiro[4.5]decane-2-carbonyl)-2,3-dihydro-1H-inden-1-yl]-benzamide [IND_CC-358] | 104
5-Chloro-2-fluoro-N-[6-[8-[3-(3-fluorophenyl)-propyl]-2,8-diazaspiro[4.5]decane-2-carbonyl]-2,3-dihydro-1H-inden-1-yl]-benzamide [IND_CC-674] | 67
